Results reported in article PMC6398866 (PLoS ONE, 2019).

How the values were obtained:
rat aortic rings = assay: Isometric tension measurement, U46619-precontracted aortic rings
Procedure: A vasoconstriction-relaxation study was performed as described previously. Male Sprague-Dawley rats were purchased from Orient Bio (Gyeonggi-do, South Korea). Briefly, the thoracic aortas of the rats were excised and immersed in ice-cold, modified Krebs solution. The aortas were cleaned of all connective tissue, soaked in Krebs-bicarbonate solution, and cut into four ring segments (3.5 mm long). Each aortic ring was suspended in a water-jacketed organ bath (6 mL) maintained at 37°C and aerated with a mixture of 95% O2 and 5% CO2. Each ring was connected to an isometric force transducer (Danish Myo Technology, Skejbyparken, Aarhus N, Denmark). The rings were stretched to an optimal resting tension of 1.0 or 2.0 g, which was maintained throughout the experiment. Each ring was equilibrated in the organ bath solution for 90 min before the contractile responses were measured after the addition of 50 mM KCl.

[1] = test system: Ang II-induced hypertensive mice; conditions: Ang II-induced hypertensive mice ref 26; cited from earlier work
[2] = test system: Ang II-induced hypertensive mice; assay: Systolic blood pressure (tail-cuff) in Ang II-induced hypertensive mice; type: in vivo; conditions: Ang II-infused mice, 3 mg·kg^-1·day^-1 i.p. day 8 to 14, vs Ang II group
Excerpt: All animal experiments were approved by the Animal Experiment Committee of the Chonnam National University Medical School (CNU IACUC-H-2017-70) and carried out in accordance with the Guide for the Care and Use of Laboratory Animals (US National Institutes of Health Publication, 8th edition, 2011). CD-1 male mice (8-week-old) were purchased from OrientBio Company (Gyeonggi, South Korea). Alzet mini-osmotic pumps (model 1002) were purchased from Durect Corporation (Cupertino, CA, USA).

AT1 mRNA = assay: qRT-PCR of aortic tissue, Ang II mice; type: in vivo; conditions: Ang II-infused mice, 3 mg·kg^-1·day^-1 i.p. day 8 to 14, vs Ang II group
ANP mRNA = assay: qRT-PCR of heart tissue, Ang II mice; type: in vivo; conditions: Ang II-infused mice, 3 mg·kg^-1·day^-1 i.p. day 8 to 14, vs Ang II group
BNP mRNA = assay: qRT-PCR of heart tissue, Ang II mice; type: in vivo; conditions: Ang II-infused mice, 3 mg·kg^-1·day^-1 i.p. day 8 to 14, vs Ang II group
skeletal α-actin mRNA = assay: qRT-PCR of heart tissue, Ang II mice; type: in vivo; conditions: Ang II-infused mice, 3 mg·kg^-1·day^-1 i.p. day 8 to 14, vs Ang II group
[3] = test system: Ang II-induced hypertensive mice; assay: Aortic wall thickness (H&E staining) in Ang II mice; type: in vivo; conditions: Ang II-infused mice, 3 mg·kg^-1·day^-1 i.p. day 8 to 14, H&E, vs Ang II group
cyclin D1 mRNA = assay: qRT-PCR of aortic tissue, Ang II mice; type: in vivo; conditions: Ang II-infused mice, 3 mg·kg^-1·day^-1 i.p. day 8 to 14, vs Ang II group
cyclin E1 mRNA = assay: qRT-PCR of aortic tissue, Ang II mice; type: in vivo; conditions: Ang II-infused mice, 3 mg·kg^-1·day^-1 i.p. day 8 to 14, vs Ang II group
E2F3 mRNA = assay: qRT-PCR of aortic tissue, Ang II mice; type: in vivo; conditions: Ang II-infused mice, 3 mg·kg^-1·day^-1 i.p. day 8 to 14, vs Ang II group
GATA6 mRNA = assay: qRT-PCR of aortic tissue, Ang II mice; type: in vivo; conditions: Ang II-infused mice, 3 mg·kg^-1·day^-1 i.p. day 8 to 14, vs Ang II group
[4] = test system: vascular smooth muscle cells (VSMCs); assay: NO production in VSMC medium (Griess assay); type: cell-based; conditions: MS-275 3 and 10 μM, Ang II 1 μM, 24 h, Griess reagent
Procedure: VSMCs were seeded in 12 well plates.

arginase 1 mRNA = assay: qRT-PCR of aortic tissue, Ang II mice; type: in vivo; conditions: Ang II-infused mice, 3 mg·kg^-1·day^-1 i.p. day 8 to 14, vs Ang II group
arginase 2 mRNA = assay: qRT-PCR of aortic tissue, Ang II mice; type: in vivo; conditions: Ang II-infused mice, 3 mg·kg^-1·day^-1 i.p. day 8 to 14, vs Ang II group
GTPCH mRNA = assay: qRT-PCR of aortic tissue, Ang II mice; type: in vivo; conditions: Ang II-infused mice, 3 mg·kg^-1·day^-1 i.p. day 8 to 14, vs Ang II group
Nox1 mRNA = assay: qRT-PCR of aortic tissue, Ang II mice; type: in vivo; conditions: Ang II-infused mice, 3 mg·kg^-1·day^-1 i.p. day 8 to 14, vs Ang II group
Nox2 mRNA = assay: qRT-PCR of aortic tissue, Ang II mice; type: in vivo; conditions: Ang II-infused mice, 3 mg·kg^-1·day^-1 i.p. day 8 to 14, vs Ang II group
p47phox mRNA = assay: qRT-PCR of aortic tissue, Ang II mice; type: in vivo; conditions: Ang II-infused mice, 3 mg·kg^-1·day^-1 i.p. day 8 to 14, vs Ang II group
Cox-2 mRNA = assay: qRT-PCR of aortic tissue, Ang II mice; type: in vivo; conditions: Ang II-infused mice, 3 mg·kg^-1·day^-1 i.p. day 8 to 14, vs Ang II group
SOD3 mRNA = assay: qRT-PCR of aortic tissue, Ang II mice; type: in vivo; conditions: Ang II-infused mice, 3 mg·kg^-1·day^-1 i.p. day 8 to 14, vs Ang II group
iNOS mRNA = assay: qRT-PCR of aortic tissue, Ang II mice; type: in vivo; conditions: Ang II-infused mice, 3 mg·kg^-1·day^-1 i.p. day 8 to 14, vs Ang II group
TNF-α mRNA = assay: qRT-PCR of aortic tissue, Ang II mice; type: in vivo; conditions: Ang II-infused mice, 3 mg·kg^-1·day^-1 i.p. day 8 to 14, vs Ang II group
IL-1β mRNA = assay: qRT-PCR of aortic tissue, Ang II mice; type: in vivo; conditions: Ang II-infused mice, 3 mg·kg^-1·day^-1 i.p. day 8 to 14, vs Ang II group
MCP-1 mRNA = assay: qRT-PCR of aortic tissue, Ang II mice; type: in vivo; conditions: Ang II-infused mice, 3 mg·kg^-1·day^-1 i.p. day 8 to 14, vs Ang II group
VCAM-1 mRNA = assay: qRT-PCR of aortic tissue, Ang II mice; type: in vivo; conditions: Ang II-infused mice, 3 mg·kg^-1·day^-1 i.p. day 8 to 14, vs Ang II group
ICAM-1 mRNA = assay: qRT-PCR of aortic tissue, Ang II mice; type: in vivo; conditions: Ang II-infused mice, 3 mg·kg^-1·day^-1 i.p. day 8 to 14, vs Ang II group
CD68+ macrophages = assay: CD68 immunohistochemistry of aorta (macrophage infiltration), Ang II mice; type: in vivo; conditions: Ang II-infused mice, 3 mg·kg^-1·day^-1 i.p. day 8 to 14, immunohistochemistry
Procedure: For immunohistochemistry, staining was performed in aortic tissues using a primary CD68 antibody. Before incubation with primary antibodies, aorta sections received antigen retrieval using a citrate buffer. Negative controls were performed without a primary antibody.

[5] = test system: model of Cushing's syndrome; design: method as in PMID 28928236; conditions: model of Cushing's syndrome ref 23; cited from earlier work
collagen type III mRNA = assay: qRT-PCR, Ang II mice; conditions: Ang II-infused mice, 3 mg·kg^-1·day^-1 i.p. day 8 to 14, S1 Fig
Procedure: (§1) Mice were anesthetized with a ketamine (120 mg/kg), and xylazine (6.2 mg/kg) mixture and 1-cm incisions were created on the backs of the mice. Ang II (1.3 mg·kg^-1·day^-1) was subcutaneously infused into the mice using an Alzet osmotic pump as described previously [26]. […] Ang II was dissolved in a 0.9% sodium chloride (NaCl) solution. The sham control mice received the vehicle (dimethyl sulfoxide [DMSO]). […] Mice were sacrificed at the end of the study by CO2 inhalation.
(§2) Total RNA from the aorta tissue and cells was isolated with TriZol reagent (Invitrogen Life Technologies, Waltham, MA, USA), and 1 μg RNA was used for the reverse transcription (RT) reaction using TOPscript RT DryMIX (Enzynomics, Daejeon, South Korea). The mRNA amounts were determined using the SYBR Green PCR kit (Enzynomics, Daejeon, South Korea). All the data were normalized to the glyceraldehyde 3-phosphate dehydrogenase (GAPDH) expression using the 2-^ΔΔct method.

ACE1 mRNA = assay: qRT-PCR of aortic tissue, Ang II mice; conditions: Ang II-infused mice, 3 mg·kg^-1·day^-1 i.p. day 8 to 14
Procedure: as §1, §2

DDAH1 mRNA = assay: qRT-PCR of aortic tissue, Ang II mice; conditions: Ang II-infused mice, 3 mg·kg^-1·day^-1 i.p. day 8 to 14, vs Ang II group
Procedure: as §1, §2

[6] = test system: Ang II-induced hypertensive mice; assay: NO levels in serum and aorta of Ang II-infused mice (Griess assay); conditions: 3 mg·kg^-1·day^-1 i.p.
Procedure: Mice were anesthetized with a ketamine (120 mg/kg), and xylazine (6.2 mg/kg) mixture and 1-cm incisions were created on the backs of the mice. Ang II (1.3 mg·kg^-1·day^-1) was subcutaneously infused into the mice using an Alzet osmotic pump as described previously [26]. […] Ang II was dissolved in a 0.9% sodium chloride (NaCl) solution. The sham control mice received the vehicle (dimethyl sulfoxide [DMSO]). […] Mice were subjected to blood pressure measurements three times before determination of the systolic blood pressure on day 14 after Ang II infusion. The blood pressure was measured in awake mice using the tail-cuff method (BP-2000, Visitech Systems, Apex, NC, USA).
NO levels in the serum (100 μl) were measured without dilution. Aorta NO levels were determined using 50 μg of protein, which was deproteinized with 5% trichloroacetic acid (TCA).

[7] = test system: Ang II-induced hypertensive mice; assay: Aortic collagen deposition (Masson's trichrome staining) in Ang II mice; conditions: Ang II-infused mice, 3 mg·kg^-1·day^-1 i.p. day 8 to 14, Masson's trichrome
Procedure: Mice were anesthetized with a ketamine (120 mg/kg), and xylazine (6.2 mg/kg) mixture and 1-cm incisions were created on the backs of the mice. Ang II (1.3 mg·kg^-1·day^-1) was subcutaneously infused into the mice using an Alzet osmotic pump as described previously [26]. […] Ang II was dissolved in a 0.9% sodium chloride (NaCl) solution. The sham control mice received the vehicle (dimethyl sulfoxide [DMSO]). […] Mice were subjected to blood pressure measurements three times before determination of the systolic blood pressure on day 14 after Ang II infusion. The blood pressure was measured in awake mice using the tail-cuff method (BP-2000, Visitech Systems, Apex, NC, USA). Mice were sacrificed at the end of the study by CO2 inhalation.
Aortic tissues were fixed in 4% paraformaldehyde at 25°C, embedded in paraffin, and cut into 3-μm thick sections. The tissue slides were deparaffinized three times with xylene and hydrated using serially diluted ethanol. After immersing in tap water for 2 min, the slides were stained with Gill’s hematoxylin V for 5 min and then washed with tap water for 5 min and 95% ethanol for 2 min. The slides were stained with Eosin Y for 1 min, dehydrated with ethanol and xylene, and mounted using Canada balsam. The aortic wall thickness was measured using the NIS Elements Software (Nikon, Japan). […]

## COC(=O)[C@@H](N)CCCNC(N)=N[N+](=O)[O-] [L-NAME, N^G-nitro-L-arginine methyl ester]
Rat aortic rings; endothelium-intact rat aortic rings, L-NAME 10 or 100 μM for 30 min
  effect of pretreatment on MS-275-induced vascular relaxation: reduced

## Cn1c(/C=C/C(=O)NO)ccc1/C=C/C(=O)c1cccc(F)c1 [MC1568]
[1]
  high systolic blood pressure: reduces

## Nc1ccccc1NC(=O)c1ccc(CNC(=O)OCc2cccnc2)cc1 [MS-275]
[2]
  systolic blood pressure: significantly reduced
AT1 mRNA
  AT1 mRNA level in aorta: decreased
ANP mRNA
  ANP mRNA level in heart: significantly reduced
BNP mRNA
  BNP mRNA level in heart: significantly reduced
Skeletal α-actin mRNA
  skeletal a-actin mRNA level in heart: significantly reduced
[3]
  aortic wall thickness: significantly decreased
Cyclin D1 mRNA
  cyclin D1 mRNA level in aorta: not significantly decreased
Cyclin E1 mRNA
  cyclin E1 mRNA level in aorta: not significantly decreased
E2F3 mRNA
  E2F3 mRNA level in aorta: significantly inhibited
GATA6 mRNA
  GATA6 mRNA level in aorta: significantly suppressed
Rat aortic rings; endothelium-intact and -denuded rat aortas, U46619 30 nM, MS-275 cumulative 0.003–3 μM
  vasorelaxation of U46619-precontracted aortic rings: induced vasorelaxation
Rat aortic rings; rat aortic rings precontracted with U46619 30 nM
  concentration at which maximum relaxation was observed: 3 µM
[4]
  NO level in VSMC medium lowered by Ang II: significantly restored
Arginase 1 mRNA
  arginase 1 mRNA level in aorta: not reduced
Arginase 2 mRNA
  arginase 2 mRNA level in aorta: not reduced
GTPCH mRNA
  GTPCH mRNA level in aorta: significantly reduced
Nox1 mRNA
  Nox1 mRNA level in aorta: unchanged
Nox2 mRNA
  Nox2 mRNA level in aorta: unchanged
p47phox mRNA
  p47phox mRNA level in aorta: unchanged
Cox-2 mRNA
  Cox-2 mRNA level in aorta: not significantly decreased
SOD3 mRNA
  SOD3 mRNA expression in aorta: did not restore
iNOS mRNA
  iNOS mRNA level in aorta: significantly attenuated
TNF-α mRNA
  TNF-α mRNA level in aorta: significantly attenuated
IL-1β mRNA
  IL-1β mRNA level in aorta: significantly attenuated
MCP-1 mRNA
  MCP-1 mRNA level in aorta: significantly attenuated
VCAM-1 mRNA
  VCAM-1 expression in aorta: significantly inhibited
ICAM-1 mRNA
  ICAM-1 expression in aorta: significantly inhibited
CD68+ macrophages
  number of CD68+ macrophages in aorta tissue: reduced
[5]
  hypertension and hyperglycemia: attenuates
Collagen type III mRNA
  collagen type III mRNA level: reduced
ACE1 mRNA
  ACE1 mRNA level in aorta: significantly reduced
DDAH1 mRNA
  DDAH1 mRNA level in aorta: suppressed
[6]
  NO level in aorta: not induced
  NO level in serum: not induced
[7]
  collagen deposition in the adventitia of aortic tissues: attenuated
